Data taken from ChEMBL document CHEMBL2417480, “Bioactive polyprenylated acylphloroglucinol derivatives from Hypericum cohaerens” (J Nat Prod, 2013).

Legend:
MCF7 = assay: Cytotoxicity against human MCF7 cells after 48 hrs by MTT assay; details: MCF7, 48 h
A549 = assay: Cytotoxicity against human A549 cells after 48 hrs by MTT assay; details: A549, 48 h
HL-60 = assay: Cytotoxicity against human HL60 cells after 48 hrs by MTT assay; details: HL-60, 48 h
SW480 = assay: Cytotoxicity against human SW480 cells after 48 hrs by MTT assay; details: SW480, 48 h
SMMC-7721 = assay: Cytotoxicity against human SMMC7721 cells after 48 hrs by MTT assay; details: SMMC-7721, 48 h

CCC(C)C(=O)[C@@]12C(=O)C3=C(OC(C)(C)C=C3)[C@@](CC=C(C)C)(C[C@H](CC=C(C)C)[C@@]1(C)CCC=C(C)C)C2=O (stereo partly drawn)
IC50 (MCF7): > 20 µM | IC50 (A549): > 20 µM | IC50 (HL-60): > 20 µM | IC50 (SW480): > 20 µM | IC50 (SMMC-7721): > 20 µM

CC(C)=CCC[C@]1(C)[C@@H](CC=C(C)C)C[C@]23C[C@@H](C(C)C)OC2=C(CC=C(C)C)C(=O)[C@@]1(C(=O)C(C)C)C3=O
IC50 (MCF7): > 20 µM | IC50 (A549): > 20 µM | IC50 (HL-60): > 20 µM | IC50 (SW480): > 20 µM | IC50 (SMMC-7721): > 20 µM

CCC(C)C(=O)[C@@]12C(=O)C(CC=C(C)C)=C3O[C@@H](C(C)(C)O)C[C@]3(C[C@H](CC=C(C)C)[C@@]1(C)CCC=C(C)C)C2=O (stereo partly drawn)
IC50 (MCF7): > 20 µM | IC50 (A549): > 20 µM | IC50 (HL-60): > 20 µM | IC50 (SW480): > 20 µM | IC50 (SMMC-7721): > 20 µM

CC(C)=CCC[C@]1(C)[C@@H](CC=C(C)C)C[C@]23C[C@H](C(C)(C)O)OC2=C(CC=C(C)C)C(=O)[C@@]1(C(=O)C(C)C)C3=O
IC50 (MCF7): > 20 µM | IC50 (A549): > 20 µM | IC50 (HL-60): > 20 µM | IC50 (SW480): > 20 µM | IC50 (SMMC-7721): > 20 µM

CC(C)=CCC[C@]1(C)[C@@H](CC=C(C)C)C[C@]23C[C@@H](C(C)(C)O)OC2=C(C[C@@H]2OC(C)(C)[C@@H](CO)C2(C)C)C(=O)[C@@]1(C(=O)C(C)C)C3=O
IC50 (MCF7): 10.2 µM | IC50 (A549): 11.3 µM | IC50 (HL-60): 5.8 µM | IC50 (SW480): 15.6 µM | IC50 (SMMC-7721): > 20 µM

CC(C)=CCC[C@]1(C)[C@@H](CC=C(C)C)C[C@]23C[C@@H](C(C)(C)O)OC2=C(C[C@@H]2OC(C)(C)[C@@H](CO)C2(C)C)C(=O)[C@@]1(C(=O)c1ccccc1)C3=O
IC50 (MCF7): > 20 µM | IC50 (A549): 17.9 µM | IC50 (HL-60): 12.6 µM | IC50 (SW480): 9.2 µM | IC50 (SMMC-7721): 8.2 µM

CC(C)=CCC[C@]1(C)[C@@H](CC=C(C)C)C[C@]23C[C@@H](C(C)(C)O)OC2=C(C[C@H]2OC(C)(C)[C@H](CO)C2(C)C)C(=O)[C@@]1(C(=O)C(C)C)C3=O
IC50 (MCF7): 9.3 µM | IC50 (A549): 5.6 µM | IC50 (HL-60): 8.8 µM | IC50 (SW480): 7.4 µM | IC50 (SMMC-7721): 9.5 µM

CC(C)=CCC[C@]1(C)[C@@H](CC=C(C)C)C[C@]23C[C@@H](C(C)C)OC2=C(CC=C(C)C)C(=O)[C@@]1(C(=O)c1ccccc1)C3=O
IC50 (MCF7): > 20 µM | IC50 (A549): > 20 µM | IC50 (HL-60): > 20 µM | IC50 (SW480): > 20 µM | IC50 (SMMC-7721): > 20 µM

CC(=O)O[C@H]1C(=O)[C@@]2(C)[C@H]([C@H](OC(=O)c3ccccc3)[C@]3(O)C[C@H](OC(=O)[C@H](O)[C@@H](NC(=O)c4ccccc4)c4ccccc4)C(C)=C1C3(C)C)[C@]1(OC(C)=O)CO[C@@H]1C[C@@H]2O [PACLITAXEL]
IC50 (MCF7): < 0.008 µM | IC50 (HL-60): < 0.008 µM | IC50 (SMMC-7721): < 0.008 µM
